Results on 16 compounds are retold here after PubChem BioAssay (NCI).

Experiment in all cases: growth of human tumour cells (NCI), 48 h
Assay [1] relates to NCI-H522 lung.
Assay [2] relates to IGROV1 ovarian.
Assay [3] deals with SNB-75 CNS.
For assay [4], the system named is HCT-116 colon.
The subject of assay [5] is SR leukemia.
Assay [6] relates to UO-31 renal.
Assay [7] relates to TK-10 renal.
The subject of assay [8] is HOP-92 NSCLC.
Assay [9] has as its system MDA-N.
For assay [10], the system named is COLO 205 colon.

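Test compounds were applied to cells in 96-well plates for 48 hours at 5 doses. GI50 marks 50% less growth. TGI is the concentration that stops growth completely.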

In the case of `CC(C)C1=CC23CCC4C(C)(C(=O)O)CCCC4(C)C2CC1C(C(=O)O)C3C(=O)O` (stereo not drawn), the TGI in [1], in [2], in assay [3], in [4], in assay [5] and in [6] was over 100 µM throughout. Also, the TGI in assay [7] and in assay [8] was over 100 µM each time.

As to `N#Cc1c(N2CCN(c3ccc([N+](=O)[O-])cc3)CC2)[n+](=O)c2ccc(Cl)cc2n1[O-]`, the TGI in assay [1] is 2.36 µM; in assay [2], 2.01 µM; in [3], over 27.9 µM; in assay [6], 5.75 µM; in [7], 8.86 µM; in [9], over 26.1 µM.

For the compound `COC(=O)c1ccccc1CC(Cc1ccccc1)C(=O)OC` (stereo not drawn), the TGI was over 100 µM in assay [1]; over 100 µM in [2]; 73.7 µM in assay [3]; over 100 µM in assay [4]; over 100 µM in assay [10]; over 100 µM in assay [5]. Also, the TGI in [6] and in assay [7] was over 100 µM in each case.

For `CCOC12SC(=Nc3ccc(C)cc3)NN1C(=S)N(C)N=C2C` (stereo not drawn), the TGI in assay [1], in [2], in assay [3], in assay [4], in assay [10] and in [5] was over 100 µM in each case. The TGI in [8] was over 100 µM.

Take `Cc1nnc2sc(N/N=C/c3ccccc3)nn12`: the TGI in assay [1], in [2], in assay [3], in assay [4], in assay [10] and in assay [6] was over 100 µM each time. The TGI in assay [7] and in [9] was over 100 µM each time.

Regarding `Cc1n(CC(=O)c2ccccc2)nc2sc(N)n[n+]12`, the TGI in assay [1], in assay [2], in assay [3], in assay [4], in assay [10] and in [6] was over 100 µM throughout. Besides, the TGI in assay [7] and in [9] was over 100 µM in each case.

Take `Clc1ncnc2c1ncn2CCCCCCCCCCCCn1cnc2c(Cl)ncnc21`: the TGI in assay [1] was determined as 2.87 µM; in [2], 15.7 µM; in assay [4], 24.8 µM; in assay [10], 29.1 µM; in assay [5], 3.82 µM; in assay [6] it was 25.8 µM. Moreover, the TGI is 54.1 µM in [7] and 19.4 µM in assay [8].

Turning to `COC(=O)CCN(CCC(=O)OC)C1CC1`, the TGI in [2], in assay [3], in assay [4], in assay [10], in [5] and in assay [6] was over 100 µM in each case. For the same compound, the TGI in assay [7] and in assay [8] was over 100 µM throughout.

As for `CC(=O)NC1=C(NCc2ccc(Cl)cc2)C(=O)c2ccccc2C1=O`, the TGI in assay [1] turned out to be 3.13 µM; in assay [2], 49.6 µM; in [3], 15.2 µM; in assay [4], 9.35 µM; in [10], 11.4 µM; in [5], 29.9 µM. The values for the TGI in assay [6] and in assay [7] were 11.4 µM and 15.1 µM, respectively.

For the compound `CS(=O)(=O)O.[Ag]`, the TGI in [1] stood at 4.52 µM; in assay [2], 13.7 µM; in assay [3] it was 35.6 µM; in assay [4], 20 µM; in assay [10], 4.84 µM; in assay [6], 3.52 µM. Also, the TGI in assay [7] worked out at 7.74 µM; in [9] it was 19.9 µM.

On to `CC(C)(NC1=NCCO1)c1ccccc1`, for which the TGI in assay [1], in assay [2], in assay [3], in assay [4], in assay [10] and in [6] was over 100 µM each time. The TGI in assay [7], in [9] and in assay [8] was over 100 µM in each case.

Consider `COC1/C=C/C(C)C(C(C)C(OC)C(C)CCC(=O)C(C)C(C/C=C/N(C)C=O)OC)OC(=O)/C=C/C=C(\C)CC(OC)C(OC)C2=CC(=O)O[C@@H](C(C)C(OC)CC(OC)/C=C/C(C)C(O)C1)[C@H]2O` (stereo partly drawn), for which the TGI in [1] was 0.286 µM; in assay [4], 0.207 µM; in assay [5], over 31.6 µM; in assay [6], 0.267 µM; in assay [7], 0.166 µM; in assay [8] it was 0.115 µM.

Consider `CC(=O)Nc1ccc(-c2nnc(SCC(=O)Nc3ccccc3C)o2)cc1`, for which the TGI in assay [1] is over 100 µM; in assay [2], over 100 µM; in assay [3] it was over 100 µM; in assay [4], 29.4 µM; in assay [10], over 100 µM; in assay [5], over 100 µM. Moreover, the TGI in assay [6], in assay [7] and in [8] was over 100 µM in each case.

`COc1nc2[nH]ccc2c(=O)n1C`: the TGI in assay [2], in assay [3], in [4], in assay [10], in assay [5] and in assay [7] was over 100 µM in each case. In assay [8], this compound showed a TGI of over 100 µM.

As to `O=C(Nc1cccc(-n2ccc3c(NC(=O)c4ccccc4)nccc32)c1)c1cc(N2CCOCC2)cc(C(F)(F)F)c1`, the GI50 is 0.0269 µM in [1]; 0.235 µM in [2]; 0.0362 µM in assay [3]; 0.0347 µM in assay [4]; 0.157 µM in assay [10]; 0.0583 µM in [5]. Besides, the GI50 in [6] was 0.754 µM; in assay [7], 0.435 µM; in assay [8], 0.3 µM. Besides, the TGI was over 100 µM in assay [2]; 0.678 µM in assay [3]; over 29.8 µM in [4]; 0.472 µM in [10]; over 100 µM in assay [6]; over 95.5 µM in [7]. In addition, the TGI in assay [8] is over 26.2 µM.

Take `CN1CCCCC(C(O)(c2ccccc2)c2ccccc2)C1=O` (stereo not drawn): the TGI in assay [1] was over 100 µM; in assay [2] it was over 100 µM; in assay [3] it was over 100 µM; in assay [4], 56.9 µM; in assay [10], over 100 µM; in [5] it was over 100 µM. The TGI in [6], in assay [7] and in assay [8] was over 100 µM each time.
